The values below come from patent publication US20250109121A1, “POTENT AND SELECTIVE SMARCA2 DEGRADING CHIMERIC MOLECULES AS CANCER THERAPEUTICS” (BOARD OF REGENTS, THE UNIVERSITY OF TEXAS SYSTEM, priority 2021, published 2025).

Structures are written as SMILES. Where two headings read alike, the source gives them in different places.

Format in all cases: cell-based
For assay [1], the target named is T1, SMARCA2 (Homo sapiens, UniProt P51531). In words: SMARCA2 degradation in cell lines, western blot. To be noted: for SMARCA2 degradation (western blot, in words): 0.001-10 μm; for SMARCA2 expression at 100 nM (in words): H1792 and H1299 cells. As to the method: Cell lines with wild-type SMARCA4 (H1975, H1792, H2122, and H441) were treated with DMSO or 0.001, 0.01, 0.1, 1, or 10 μm of ACBI1 (degrader of SMARCA2, SMARCA4 and polybromo-associated BAF complex PBRM1) or Compound 101 and expression levels of SMARCA2 (FIG. 2A) and SMARCA4 (FIG. 2B) were detected by western blot.
(§1) Cell lines with wild-type SMARCA4 (H1792) and mutant SMARCA4 (H1299) were treated for 72 h or 96 h with DMSO or 0.001, 0.01, 0.1, 1, or 10 μm Compound 103 and analyzed by western blot for SMARCA2, SMARCA4, and PBRM1 expression (FIGS. 4A, 4B, and 4C).
(§2) Cell lines with wild-type SMARCA4 (H1792) and mutant SMARCA4 (H1299) were treated for 72 h or 96 h with DMSO or 0.001, 0.01, 0.1, 1, or 10 μm Compound 102 and analyzed by western blot for SMARCA2, SMARCA4, and PBRM1 expression (FIGS. 5A, 5B, and 5C).
(§3) Cell lines with wild-type SMARCA4 (H1975) were treated with DMSO or 0.001, 0.01, 0.1, 1, or 10 μm of Compounds 104, 105, 106, 107, or 108 and analyzed by western blot for SMARCA2, SMARCA4, and PBRM1 expression (FIGS. 6A and 6B).

Assay [2] deals with SMARCA4 (Homo sapiens, UniProt P51532). Put plainly: SMARCA4 degradation in cell lines, western blot. To be noted: for DC50: read-out: SMARCA4 DC50. (In western blotting, separated proteins are transferred to a membrane and probed.)
The next assay deals with wild-type SMARCA4 cells. In words: Colony assay / cell proliferation, wild-type SMARCA4 cell lines as a group. To be noted: HCC44, H2122, H1792, H1975; 0.001-10 μm. The protocol: (§4) Cell lines with wild-type SMARCA4 (HCC44, H2122, H1792 and H1975) and cell lines with mutant SMARCA4 (H1693, HCC515, H322, and H1299) were seeded in appropriate dilutions to form colonies in about 1-3 weeks. Cells were treated with ACBI1 or Compound 101 at concentrations of 0.001, 0.01, 0.1, 1, and 10 μm. Colonies were fixed with glutaraldehyde (6% v/v), stained with crystal violet (0.5% w/v) and the percent area of colonies was determined (FIGS. 3A and 3B). In cell lines with wild-type SMARCA4, inhibition of colony growth was more pronounced after treatment with ACBI1 than Compound 101 (FIG. 3A).

The subject of a further assay is mutant SMARCA4 cells. Put plainly: Colony assay / cell proliferation, mutant SMARCA4 cell lines as a group. To be noted: H1693, HCC515, H322, H1299; 0.001-10 μm. The protocol: as §4
For assay [3], the target named is T1, SMARCA2. In words: SMARCA2 degradation in cell lines, western blot.
Assay [4] relates to SMARCA4. In words: SMARCA4 degradation in cell lines, western blot. The settings on record: H1792 and H1299 cells, 72 h or 96 h, 0.001-10 μm.
For a further assay, the target named is T2, PBRM1 (Homo sapiens, UniProt Q86U86).
T2 construct: heterobifunctional compounds, which recruit endogenous proteins to a ubiquitin ligase for degradation; endogenous in cells; host or cells: H1792, H1299, H1975
Put plainly: PBRM1 expression in cell lines, western blot. To be noted: H1792 and H1299 cells, 72 h or 96 h, 0.001-10 μm. The protocol:
as §1, §2, §3

[5] abbreviates: H441, wild-type SMARCA4 cell line.
Setting [6] is: H1792, wild-type SMARCA4 cell line.
Where [7] appears, read: H2122, wild-type SMARCA4 cell line.
The mark [8] stands for this setting: H1975, wild-type SMARCA4 cell line.
Where [9] appears, read: H1792 (wild-type SMARCA4) and H1299 (mutant SMARCA4) cells, 72 h or 96 h.

SMARCA4 (Homo sapiens, UniProt P51532), sequence (P51532 whole entry): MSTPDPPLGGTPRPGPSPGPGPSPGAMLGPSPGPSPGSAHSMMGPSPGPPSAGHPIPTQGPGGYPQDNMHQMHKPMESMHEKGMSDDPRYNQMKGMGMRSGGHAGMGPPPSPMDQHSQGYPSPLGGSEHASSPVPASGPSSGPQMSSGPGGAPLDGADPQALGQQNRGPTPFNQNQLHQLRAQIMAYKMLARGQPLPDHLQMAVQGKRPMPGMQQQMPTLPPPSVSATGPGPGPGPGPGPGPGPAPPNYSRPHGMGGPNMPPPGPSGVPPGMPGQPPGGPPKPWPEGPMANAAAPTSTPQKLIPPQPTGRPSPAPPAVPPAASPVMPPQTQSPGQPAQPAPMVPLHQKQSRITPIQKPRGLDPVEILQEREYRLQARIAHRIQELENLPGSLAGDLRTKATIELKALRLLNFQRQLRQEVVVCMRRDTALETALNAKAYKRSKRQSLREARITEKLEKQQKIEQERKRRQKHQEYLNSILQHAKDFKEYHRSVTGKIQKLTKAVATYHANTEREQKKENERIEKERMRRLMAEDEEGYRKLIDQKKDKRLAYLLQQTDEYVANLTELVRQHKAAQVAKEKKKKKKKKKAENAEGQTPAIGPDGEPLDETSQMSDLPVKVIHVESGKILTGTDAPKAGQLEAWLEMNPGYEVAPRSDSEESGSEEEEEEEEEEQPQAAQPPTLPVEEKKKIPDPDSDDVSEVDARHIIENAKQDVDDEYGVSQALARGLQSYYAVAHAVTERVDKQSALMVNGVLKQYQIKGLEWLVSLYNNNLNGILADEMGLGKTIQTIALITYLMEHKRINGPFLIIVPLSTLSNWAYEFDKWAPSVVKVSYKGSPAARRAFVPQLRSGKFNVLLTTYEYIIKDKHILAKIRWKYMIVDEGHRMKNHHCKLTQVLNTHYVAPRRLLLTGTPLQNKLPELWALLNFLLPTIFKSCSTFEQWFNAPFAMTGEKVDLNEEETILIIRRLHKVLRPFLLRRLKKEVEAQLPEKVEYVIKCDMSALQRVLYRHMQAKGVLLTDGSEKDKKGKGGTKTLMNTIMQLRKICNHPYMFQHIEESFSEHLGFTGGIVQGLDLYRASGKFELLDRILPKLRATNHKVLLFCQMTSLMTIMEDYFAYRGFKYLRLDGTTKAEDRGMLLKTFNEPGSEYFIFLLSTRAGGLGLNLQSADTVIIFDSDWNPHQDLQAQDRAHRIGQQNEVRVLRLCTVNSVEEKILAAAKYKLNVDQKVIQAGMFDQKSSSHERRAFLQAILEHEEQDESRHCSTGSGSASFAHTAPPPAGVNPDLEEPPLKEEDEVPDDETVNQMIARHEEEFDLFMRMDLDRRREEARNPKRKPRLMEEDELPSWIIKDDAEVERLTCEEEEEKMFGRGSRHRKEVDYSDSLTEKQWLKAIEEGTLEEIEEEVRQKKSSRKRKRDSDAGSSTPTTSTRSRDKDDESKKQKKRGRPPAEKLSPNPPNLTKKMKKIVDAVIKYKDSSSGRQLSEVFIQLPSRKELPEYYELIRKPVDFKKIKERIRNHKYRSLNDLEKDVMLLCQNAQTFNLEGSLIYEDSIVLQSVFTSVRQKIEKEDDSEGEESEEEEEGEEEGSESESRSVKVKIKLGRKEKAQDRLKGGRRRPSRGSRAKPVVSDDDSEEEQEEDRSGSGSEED
T1 sequence (P51531 whole entry): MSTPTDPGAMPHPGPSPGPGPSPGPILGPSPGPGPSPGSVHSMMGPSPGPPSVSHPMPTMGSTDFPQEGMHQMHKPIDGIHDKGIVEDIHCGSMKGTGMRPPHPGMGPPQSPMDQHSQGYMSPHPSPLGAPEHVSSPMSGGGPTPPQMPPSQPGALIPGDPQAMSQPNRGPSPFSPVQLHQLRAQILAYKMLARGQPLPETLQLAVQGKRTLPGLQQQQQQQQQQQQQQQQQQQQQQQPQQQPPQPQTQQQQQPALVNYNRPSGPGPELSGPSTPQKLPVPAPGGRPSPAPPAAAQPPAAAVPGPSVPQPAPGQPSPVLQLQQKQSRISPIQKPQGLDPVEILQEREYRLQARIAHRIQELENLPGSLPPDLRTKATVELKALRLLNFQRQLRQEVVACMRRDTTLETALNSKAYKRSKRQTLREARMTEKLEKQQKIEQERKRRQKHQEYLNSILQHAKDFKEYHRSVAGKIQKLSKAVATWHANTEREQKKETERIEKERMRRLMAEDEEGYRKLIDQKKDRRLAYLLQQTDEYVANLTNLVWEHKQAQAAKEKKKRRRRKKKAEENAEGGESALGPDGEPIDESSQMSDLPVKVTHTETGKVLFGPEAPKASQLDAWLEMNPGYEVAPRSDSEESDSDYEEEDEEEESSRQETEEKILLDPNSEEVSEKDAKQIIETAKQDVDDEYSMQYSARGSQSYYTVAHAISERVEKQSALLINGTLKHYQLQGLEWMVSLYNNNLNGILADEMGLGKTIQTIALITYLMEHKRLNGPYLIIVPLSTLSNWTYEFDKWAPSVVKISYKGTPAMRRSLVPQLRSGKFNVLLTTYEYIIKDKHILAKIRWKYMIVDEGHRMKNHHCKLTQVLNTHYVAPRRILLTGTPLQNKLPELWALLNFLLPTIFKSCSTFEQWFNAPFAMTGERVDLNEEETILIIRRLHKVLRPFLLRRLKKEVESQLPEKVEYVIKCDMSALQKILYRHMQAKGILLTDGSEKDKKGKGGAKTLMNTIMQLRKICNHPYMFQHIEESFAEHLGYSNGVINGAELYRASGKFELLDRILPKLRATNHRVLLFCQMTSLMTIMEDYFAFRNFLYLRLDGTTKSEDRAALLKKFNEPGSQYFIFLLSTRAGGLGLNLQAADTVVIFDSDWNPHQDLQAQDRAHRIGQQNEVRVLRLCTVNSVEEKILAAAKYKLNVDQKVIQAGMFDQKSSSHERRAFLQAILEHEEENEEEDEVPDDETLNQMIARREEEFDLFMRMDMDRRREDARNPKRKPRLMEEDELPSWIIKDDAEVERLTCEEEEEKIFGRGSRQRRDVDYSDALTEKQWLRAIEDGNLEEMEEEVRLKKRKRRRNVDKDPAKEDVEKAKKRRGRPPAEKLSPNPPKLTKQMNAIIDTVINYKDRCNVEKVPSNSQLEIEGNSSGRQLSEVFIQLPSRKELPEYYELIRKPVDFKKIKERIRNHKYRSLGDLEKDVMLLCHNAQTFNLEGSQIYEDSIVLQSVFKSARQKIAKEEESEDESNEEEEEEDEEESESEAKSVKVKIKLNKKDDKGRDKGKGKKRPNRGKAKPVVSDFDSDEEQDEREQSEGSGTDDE
T2 sequence (Q86U86 whole entry): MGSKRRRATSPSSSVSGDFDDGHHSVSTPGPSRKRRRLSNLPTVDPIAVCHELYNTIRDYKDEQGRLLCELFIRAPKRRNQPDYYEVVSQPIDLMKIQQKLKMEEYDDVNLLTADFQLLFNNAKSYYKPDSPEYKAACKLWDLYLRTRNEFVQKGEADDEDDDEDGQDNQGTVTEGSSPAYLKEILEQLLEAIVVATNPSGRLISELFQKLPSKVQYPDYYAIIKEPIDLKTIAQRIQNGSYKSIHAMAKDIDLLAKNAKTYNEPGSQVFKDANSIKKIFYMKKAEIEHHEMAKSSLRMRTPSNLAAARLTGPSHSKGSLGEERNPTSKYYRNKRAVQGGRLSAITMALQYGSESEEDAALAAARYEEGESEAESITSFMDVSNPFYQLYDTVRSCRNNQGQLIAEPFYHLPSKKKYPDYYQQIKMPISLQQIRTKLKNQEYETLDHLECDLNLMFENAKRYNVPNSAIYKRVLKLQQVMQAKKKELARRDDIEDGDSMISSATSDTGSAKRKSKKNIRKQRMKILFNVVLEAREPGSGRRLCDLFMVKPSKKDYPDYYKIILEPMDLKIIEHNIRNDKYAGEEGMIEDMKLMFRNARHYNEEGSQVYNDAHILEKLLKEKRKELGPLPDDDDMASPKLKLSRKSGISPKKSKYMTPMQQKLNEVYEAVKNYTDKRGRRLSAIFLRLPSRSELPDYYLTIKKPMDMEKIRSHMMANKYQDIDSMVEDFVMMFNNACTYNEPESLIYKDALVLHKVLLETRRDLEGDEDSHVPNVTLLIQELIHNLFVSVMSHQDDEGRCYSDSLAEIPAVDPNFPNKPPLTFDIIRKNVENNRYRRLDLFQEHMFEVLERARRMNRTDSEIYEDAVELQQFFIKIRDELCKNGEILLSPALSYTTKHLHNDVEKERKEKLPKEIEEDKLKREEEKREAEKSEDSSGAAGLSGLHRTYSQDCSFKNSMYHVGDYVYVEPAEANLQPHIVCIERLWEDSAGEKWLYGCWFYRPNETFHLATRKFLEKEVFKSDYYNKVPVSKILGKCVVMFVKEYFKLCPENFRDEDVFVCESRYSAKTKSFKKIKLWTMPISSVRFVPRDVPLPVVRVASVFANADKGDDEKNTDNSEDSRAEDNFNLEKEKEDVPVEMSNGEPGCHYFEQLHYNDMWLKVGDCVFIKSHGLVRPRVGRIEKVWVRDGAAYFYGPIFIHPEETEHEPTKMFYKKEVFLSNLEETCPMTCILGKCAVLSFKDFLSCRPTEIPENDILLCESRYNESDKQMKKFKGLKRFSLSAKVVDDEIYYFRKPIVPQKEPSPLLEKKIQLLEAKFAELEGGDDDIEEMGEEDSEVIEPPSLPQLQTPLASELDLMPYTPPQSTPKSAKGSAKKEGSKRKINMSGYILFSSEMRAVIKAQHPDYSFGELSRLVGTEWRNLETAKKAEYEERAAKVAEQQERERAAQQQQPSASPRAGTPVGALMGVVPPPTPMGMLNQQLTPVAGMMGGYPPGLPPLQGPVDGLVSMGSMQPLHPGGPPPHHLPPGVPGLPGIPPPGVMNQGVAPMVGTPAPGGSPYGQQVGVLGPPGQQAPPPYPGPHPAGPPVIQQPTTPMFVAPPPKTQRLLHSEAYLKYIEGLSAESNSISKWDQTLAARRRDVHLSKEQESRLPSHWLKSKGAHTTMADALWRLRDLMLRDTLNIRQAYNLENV

As for `Cc1ncsc1-c1ccc(CNC(=O)[C@@H]2C[C@@H](O)CN2C(=O)[C@@H](NC(=O)C2(F)CC2)C(C)(C)C)c(OCCOc2ccc(CN3CCN(c4cc(-c5ccccc5O)nnc4N)CC3)cc2)c1` [ACBI1, reference compound], the 50% degradation concentration (DC50) (commonly the concentration giving 50% degradation) amounted to 11 nM at SMARCA2 [1] (setting [5]); 7 nM on SMARCA2 [1] (setting [6]); 51 nM on SMARCA2 [1] (H1975, wild-type SMARCA4 cell line, concentration at which 50% of the target protein is degraded); 13 nM at SMARCA2 [1] (setting [7]); 36 nM on SMARCA4 [2] (setting [5]); 18 nM on SMARCA4 [2] (setting [6]). Besides, the values for the DC50 at SMARCA4 [2] (setting [8]) and on SMARCA4 [2] (setting [7]) were 98 nM and 32 nM, respectively. Moreover, the “SMARCA2 degradation (western blot, in words)” value (“SMARCA2 degradation” for short) at SMARCA2 [1] (H1975, H1792, H2122, H441, increasing concentrations) was “degraded SMARCA2 and SMARCA4”. Also, the “SMARCA4 Dmax (%)” value on SMARCA4 [2] (setting [5]) stood at 99%; at SMARCA4 [2] (setting [6]), 98%; at SMARCA4 [2] (setting [8]), 98%; on SMARCA4 [2] (setting [7]), 97%. At SMARCA4 [2] (H1975, H1792, H2122, H441 (Table 3)), the “SMARCA4 Dmax, span over cell lines” value was 97-99%. The “SMARCA4 degradation (western blot, in words)” value at SMARCA4 [2] (H1975, H1792, H2122, H441, 0.001-10 μm, increasing concentrations) is “degraded SMARCA2 and SMARCA4”. In the assay on wild-type SMARCA4 cells, the “colony growth / proliferation of wild-type SMARCA4 cells (in words)” value is “inhibited wild-type and mutant SMARCA4 cells”. For the same molecule, the “colony growth / proliferation of mutant SMARCA4 cells (in words)” value with mutant SMARCA4 cells is “inhibited wild-type and mutant SMARCA4 cells”. Moreover, the “SMARCA2 Dmax (%)” value at SMARCA2 [3] (setting [5]) was determined as 97%; on SMARCA2 [3] (setting [6]), 97%; at SMARCA2 [3] (H1975, wild-type SMARCA4 cell line, maximum degradation as percentage of DMSO control), 98%; on SMARCA2 [3] (setting [7]), 95%.

As to `Nc1nnc(-c2ccccc2O)cc1N1CCN(Cc2ccc(N3CCN(CCOc4cccc5c4C(=O)N(C4CCC(=O)NC4=O)C5=O)CC3)c(F)c2)CC1` (centres unmarked) [Compound 102], the “SMARCA2 degradation” value at SMARCA2 [1] (setting [9]) is recorded as “efficiently degraded SMARCA2”. In addition, on SMARCA2 [1], the “SMARCA2 expression at 100 nM (in words)” value is “significantly inhibited SMARCA2 expression”. The “SMARCA4 expression (western blot, in words)” value in the assay on SMARCA4 [4] is on record as “reduced expression of SMARCA4”. In addition, the “PBRM1 expression (western blot, in words)” value on PBRM1 was “did not have a significant effect on the expression of PBRM1”.

With `Nc1nnc(-c2ccccc2O)cc1N1CCN(Cc2ccc(N3CCC(CN4CCN(c5ccc6c(c5)C(=O)N(C5CCC(=O)NC5=O)C6=O)CC4)CC3)c(F)c2)CC1` (centres unmarked) [Compound 103], the “SMARCA2 degradation” value at SMARCA2 [1] (setting [9]) is listed as “efficiently degraded SMARCA2”. Besides, on SMARCA2 [1], the “SMARCA2 expression at 100 nM (in words)” value is “significantly inhibited SMARCA2 expression”. Further, the “SMARCA4 expression (western blot, in words)” value with SMARCA4 [4] is “reduced expression of SMARCA4 in H1792 cells”. For the same molecule, the “PBRM1 expression (western blot, in words)” value on PBRM1 is “did not have a significant effect on the expression of PBRM1”.
